Laboratory results as given in ChEMBL document CHEMBL4002573, “New insights into the SAR and drug combination synergy of 2-(quinolin-4-yloxy)acetamides against Mycobacterium tuberculosis” (Eur J Med Chem, 2017).
In brackets after ≈: the same amount, converted by molar mass.

Tests used:
[1] = Thermodynamic solubility of the compound in 0.1N HCl at pH 1.5 after 24 hrs by HPLC method; format: physicochemical; settings: read-out: Therm_solubility
Cytochrome P450 2C9 = Cytochrome P450 2C9 (Homo sapiens, UniProt P11712); assay: Inhibition of CYP2C9 in human liver microsomes using tolbutamide as substrate by HPLC-MS/MS method; format: ADME
Cytochrome P450 2C19 = Cytochrome P450 2C19 (Homo sapiens, UniProt P33261); assay: Inhibition of CYP2C19 in human liver microsomes using S-(+)-mephenytoin as substrate by HPLC-MS/MS method; format: ADME
[2] = Kinetic solubility in PBS at pH 7.4; format: physicochemical; settings: read-out: Kinetic_solubility
[3] = test system: Mycobacterium tuberculosis; format: functional; settings: H37Rv, 168 h
[4] = test system: Mycobacterium tuberculosis; format: functional; settings: H37Rv, 168 h; remark: listed apart in the source
[5] = test system: Mycobacterium tuberculosis; format: functional; settings: H37Rv, 168 h; remark: listed apart in the source
[6] = test system: Mycobacterium tuberculosis; format: functional, H37Rv
[7] = Permeability of the compound at 1 uM […] by PAMPA; format: physicochemical; settings: read-out: permeability
Cytochrome P450 2E1 = Cytochrome P450 2E1 (Homo sapiens, UniProt P05181); assay: Inhibition of CYP2E1 in human liver microsomes using chlorzoxazone as substrate by HPLC-MS/MS method; format: ADME
[8] = Cytotoxicity against mouse RAW264.7 cells assessed as viability at 10 uM after 72 hrs by MTT assay relative to control; format: cell-based; settings: read-out: Activity
[9] = test system: Mycobacterium tuberculosis; assay: microbe, parasite or virus in culture; settings: PE-003, 168 h
Description: Antimycobacterial activity against Mycobacterium tuberculosis PE-003 clinical isolate after 7 days by resazurin reduction microplate assay

[10] = Cytotoxicity against mouse N9 cells assessed as viability at 10 uM after 72 hrs by MTT assay relative to control; format: cell-based; settings: read-out: Activity
[11] = test system: Mycobacterium tuberculosis; format: functional; settings: H37Rv, 168 h; remark: listed apart in the source
[12] = test system: Mycobacterium tuberculosis; assay: microbe, parasite or virus in culture; settings: H37Rv, 168 h
Description: Antimycobacterial activity against Mycobacterium tuberculosis H37Rv after 7 days by resazurin reduction microplate assay

[13] = test system: Mycobacterium tuberculosis; assay: Bactericidal activity against Mycobacterium tuberculosis H37Rv infected in mouse RAW264.7 cells assessed as bacterial colony formation at 5 uM after 5 days (reference value: 4.1 to 4.73 log10CU); format: functional
[14] = test system: Mycobacterium tuberculosis; format: functional; settings: H37Rv, 168 h; remark: listed apart in the source
[15] = Intrinsic clearance in human liver S9 fraction at 2 uM by HPLC-MS/MS analysis; format: ADME, tissue-based
[16] = Cytotoxicity against human HepG2 cells assessed as viability at 10 uM after 72 hrs by MTT assay relative to control; format: cell-based; settings: read-out: Activity
[17] = test system: Mycobacterium tuberculosis; assay: Potency index, ratio of moxifloxacin MIC to test compound MIC for Mycobacterium tuberculosis PE-003 clinical isolate; format: functional
[18] = Thermodynamic solubility of the compound in acetate buffer at pH 4 after 24 hrs by HPLC method; format: physicochemical; settings: read-out: Therm_solubility
Cytochrome P450 1A2 = biological target: T1, Cytochrome P450 1A2 (Homo sapiens, UniProt P05177); assay: Inhibition of CYP1A2 in human liver microsomes using phenacetin as substrate by HPLC-MS/MS method; format: ADME
T1 sequence (P05177 whole entry): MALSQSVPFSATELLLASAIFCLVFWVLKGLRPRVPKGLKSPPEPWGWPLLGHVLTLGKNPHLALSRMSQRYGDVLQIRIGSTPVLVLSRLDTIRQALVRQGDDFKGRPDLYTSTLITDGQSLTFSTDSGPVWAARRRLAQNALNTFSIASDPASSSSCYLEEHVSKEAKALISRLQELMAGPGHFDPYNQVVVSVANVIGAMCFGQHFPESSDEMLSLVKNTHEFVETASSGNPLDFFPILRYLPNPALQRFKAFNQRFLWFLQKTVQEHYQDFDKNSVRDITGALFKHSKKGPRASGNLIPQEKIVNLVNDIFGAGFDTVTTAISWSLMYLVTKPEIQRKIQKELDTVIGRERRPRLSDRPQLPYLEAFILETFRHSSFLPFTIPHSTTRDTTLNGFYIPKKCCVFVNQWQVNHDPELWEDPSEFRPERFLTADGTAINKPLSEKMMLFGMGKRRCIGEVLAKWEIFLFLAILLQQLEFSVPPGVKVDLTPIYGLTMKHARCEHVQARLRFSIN

Cytochrome P450 2D6 = Cytochrome P450 2D6 (Homo sapiens, UniProt P10635); assay: Inhibition of CYP2D6 in human liver microsomes using dextromethorphan as substrate by HPLC-MS/MS method; format: ADME
[19] = Cytotoxicity against human HaCaT cells assessed as viability at 10 uM after 72 hrs by MTT assay relative to control; format: cell-based; settings: read-out: Activity
[20] = test system: Mycobacterium tuberculosis; assay: Potency index, ratio of isoniazid MIC to test compound MIC for Mycobacterium tuberculosis H37Rv; format: functional
[21] = test system: Mycobacterium tuberculosis; assay: microbe, parasite or virus in culture; settings: CDCT-4 (1105/09), 168 h
Description: Antimycobacterial activity against Mycobacterium tuberculosis CDCT-4 (1105/09) clinical isolate after 7 days by resazurin reduction microplate assay

[22] = Half life in human liver S9 fraction at 2 uM by HPLC-MS/MS analysis; format: ADME, tissue-based
Cytochrome P450 3A4 = Cytochrome P450 3A4 (Homo sapiens, UniProt P08684); assay: Inhibition of CYP3A4 in human liver microsomes using testosterone as substrate by HPLC-MS/MS method; format: ADME
[23] = Cytotoxicity against African green monkey Vero cells assessed as viability at 10 uM after 72 hrs by MTT assay relative to control; format: cell-based; settings: chlorocebus sabaeus, read-out: Activity
[24] = Kinetic solubility in water at pH 5.8; format: physicochemical; settings: read-out: Kinetic_solubility
[25] = test system: Mycobacterium tuberculosis; format: functional; settings: H37Rv, 168 h; remark: listed apart in the source

Cytochrome P450 2E1, sequence (P05181 whole entry): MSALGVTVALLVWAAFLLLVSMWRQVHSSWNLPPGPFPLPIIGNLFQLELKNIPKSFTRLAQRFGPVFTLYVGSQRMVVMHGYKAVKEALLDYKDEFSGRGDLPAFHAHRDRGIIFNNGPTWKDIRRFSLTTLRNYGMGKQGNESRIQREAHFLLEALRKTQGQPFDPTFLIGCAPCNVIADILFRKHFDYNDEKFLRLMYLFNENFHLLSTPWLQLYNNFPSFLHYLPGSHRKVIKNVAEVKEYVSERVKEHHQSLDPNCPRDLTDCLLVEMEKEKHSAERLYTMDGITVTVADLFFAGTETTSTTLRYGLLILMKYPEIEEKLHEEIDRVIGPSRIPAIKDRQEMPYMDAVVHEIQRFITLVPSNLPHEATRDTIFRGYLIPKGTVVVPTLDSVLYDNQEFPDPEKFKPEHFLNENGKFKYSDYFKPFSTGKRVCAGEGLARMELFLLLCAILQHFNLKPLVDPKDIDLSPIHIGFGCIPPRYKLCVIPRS
Cytochrome P450 2C9, sequence (P11712 whole entry): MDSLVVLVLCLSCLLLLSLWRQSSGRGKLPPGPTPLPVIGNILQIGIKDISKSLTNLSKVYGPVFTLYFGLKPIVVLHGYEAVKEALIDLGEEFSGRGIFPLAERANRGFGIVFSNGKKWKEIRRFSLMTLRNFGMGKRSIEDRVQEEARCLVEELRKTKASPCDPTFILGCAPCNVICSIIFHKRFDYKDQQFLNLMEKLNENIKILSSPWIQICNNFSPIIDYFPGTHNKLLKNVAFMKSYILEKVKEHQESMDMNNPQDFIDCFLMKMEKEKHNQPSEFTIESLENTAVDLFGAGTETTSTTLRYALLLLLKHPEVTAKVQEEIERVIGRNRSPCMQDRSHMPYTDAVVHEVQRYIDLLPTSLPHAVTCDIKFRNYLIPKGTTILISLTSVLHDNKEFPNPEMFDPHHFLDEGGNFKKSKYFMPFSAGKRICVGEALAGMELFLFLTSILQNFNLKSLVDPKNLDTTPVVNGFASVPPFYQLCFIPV
Cytochrome P450 2C19, sequence (P33261 whole entry): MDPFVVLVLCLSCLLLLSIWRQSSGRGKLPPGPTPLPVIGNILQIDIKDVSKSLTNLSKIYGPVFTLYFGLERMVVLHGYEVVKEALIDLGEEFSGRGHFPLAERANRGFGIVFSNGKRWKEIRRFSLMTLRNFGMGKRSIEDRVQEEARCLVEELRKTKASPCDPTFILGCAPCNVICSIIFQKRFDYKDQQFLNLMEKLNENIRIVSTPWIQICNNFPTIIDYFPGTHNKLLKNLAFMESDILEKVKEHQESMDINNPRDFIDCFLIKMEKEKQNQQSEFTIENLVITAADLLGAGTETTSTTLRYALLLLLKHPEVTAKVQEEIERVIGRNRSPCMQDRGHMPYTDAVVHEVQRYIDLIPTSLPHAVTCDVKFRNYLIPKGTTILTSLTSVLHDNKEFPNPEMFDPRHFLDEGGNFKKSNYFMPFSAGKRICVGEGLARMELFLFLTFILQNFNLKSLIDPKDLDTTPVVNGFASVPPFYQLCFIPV
Cytochrome P450 3A4, sequence (P08684 whole entry): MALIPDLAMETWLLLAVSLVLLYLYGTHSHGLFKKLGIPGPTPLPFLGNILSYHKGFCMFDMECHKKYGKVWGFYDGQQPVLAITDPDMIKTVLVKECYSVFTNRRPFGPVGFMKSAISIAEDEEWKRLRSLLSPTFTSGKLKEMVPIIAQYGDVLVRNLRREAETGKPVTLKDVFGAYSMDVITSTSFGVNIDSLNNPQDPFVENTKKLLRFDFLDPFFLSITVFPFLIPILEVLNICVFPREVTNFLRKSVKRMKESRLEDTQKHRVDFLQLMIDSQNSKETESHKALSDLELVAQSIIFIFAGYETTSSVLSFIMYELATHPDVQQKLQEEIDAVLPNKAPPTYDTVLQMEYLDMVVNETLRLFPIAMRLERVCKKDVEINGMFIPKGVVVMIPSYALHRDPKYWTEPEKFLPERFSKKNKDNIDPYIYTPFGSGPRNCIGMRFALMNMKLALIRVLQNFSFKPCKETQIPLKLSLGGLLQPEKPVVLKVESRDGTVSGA
Cytochrome P450 2D6, sequence (P10635 whole entry): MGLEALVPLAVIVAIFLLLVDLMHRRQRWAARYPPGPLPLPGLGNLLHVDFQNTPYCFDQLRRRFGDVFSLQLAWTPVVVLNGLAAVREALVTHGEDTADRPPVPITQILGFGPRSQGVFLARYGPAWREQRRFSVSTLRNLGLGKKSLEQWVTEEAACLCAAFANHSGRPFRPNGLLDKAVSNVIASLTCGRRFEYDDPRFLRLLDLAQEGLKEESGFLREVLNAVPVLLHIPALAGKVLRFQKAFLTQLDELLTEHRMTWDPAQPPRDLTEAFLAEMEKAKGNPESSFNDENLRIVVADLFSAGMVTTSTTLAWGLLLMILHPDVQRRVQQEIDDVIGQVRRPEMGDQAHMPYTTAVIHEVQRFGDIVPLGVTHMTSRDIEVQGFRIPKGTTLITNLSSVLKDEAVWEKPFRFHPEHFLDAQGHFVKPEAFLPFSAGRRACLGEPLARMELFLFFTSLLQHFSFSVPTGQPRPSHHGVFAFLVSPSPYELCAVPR

## CCCCCc1ccc(NC(=O)COc2cc(C)nc3ccc(OC)cc23)cc1
[1]
  solubility thermodynamic at 24 h: 30 µM (≈ 11.8 µg/mL)
Cytochrome P450 2C9
  IC50: > 30 µM
Cytochrome P450 2C19
  IC50: > 30 µM
[2]
  solubility kinetic: 4.7 µM (≈ 1.84 µg/mL)
[3]
  MIC: 20 ng/mL (≈ 0.051 µM)
[4]
  MIC: 10 ng/mL (≈ 0.0255 µM)
[5]
  MIC: 5 ng/mL (≈ 0.0127 µM)
[6]
  Ratio: 2
[7]
  Papp at 1 µM: 1.7 ×10⁻⁶ cm/s
Cytochrome P450 2E1
  IC50: > 30 µM
[8]
  viability at 72 h, 10 µM: 86%
[9]
  MIC: 0.001 µM (≈ 0.000392 µg/mL)
[10]
  viability at 72 h, 10 µM: 110%
[11]
  MIC: 10 ng/mL (≈ 0.0255 µM)
[12]
  MIC: 0.005 to 0.01 µM (≈ 0.00196 to 0.00392 µg/mL)
[13]
  Activity: 3.23 log10CFU
[14]
  MIC: 2.5 ng/mL (≈ 0.00637 µM)
[15]
  CLhep predicted at 2 µM: 14.8 mL/min/kg
[16]
  viability at 72 h, 10 µM: 83%
[17]
  Ratio: 100
[18]
  solubility thermodynamic at 24 h: 20 µM (≈ 7.85 µg/mL)
Cytochrome P450 1A2
  IC50: > 30 µM
Cytochrome P450 2D6
  IC50: > 30 µM
[19]
  viability at 72 h, 10 µM: 105%
[20]
  Ratio: 292
[21]
  MIC: < 0.05 µM
[22]
  half-life at 2 µM: 19.4 min
Cytochrome P450 3A4
  IC50: > 30 µM
[23]
  viability at 72 h, 10 µM: 97%
[24]
  solubility kinetic: 2.6 µM (≈ 1.02 µg/mL)
[25]
  MIC: 1 ng/mL (≈ 0.00255 µM)
